The text below walks through data of ChEMBL document CHEMBL3785073, “Antiviral Indolosesquiterpenoid Xiamycins C-E from a Halophilic Actinomycete” (J Nat Prod, 2016).

The subject of series [1] is Porcine epidemic diarrhea virus. Kind of series: Antiviral activity against PEDV infected in African green monkey Vero cells assessed as suppression of GP6 neucleocapsid protein expression after 24 hrs by Western blot analysis. It is filed as functional, cell-based. (In general: In western blotting, separated proteins are transferred to a membrane and probed.)
Series [2] can be described thus: Selectivity index, ratio of CC50 for African green monkey Vero cells to EC50 for PEDV infected in African green monkey Vero cells.
Series [3] deals with Porcine epidemic diarrhea virus. The series is described as follows: Antiviral activity against PEDV infected in African green monkey Vero cells assessed as suppression of GP5 neucleocapsid protein mRNA level after 24 hrs by RT-PCR analysis. It is filed as functional, cell-based.
The test system is the same in series [4]. The series is described as follows: Antiviral activity against PEDV infected in African green monkey Vero cells assessed as suppression of GP2 spike protein expression at 5 uM after 24 hrs by Western blot analysis. It is filed as functional, cell-based.
Series [5] is described as follows: Cytotoxicity against African green monkey Vero cells after 48 hrs by MTT assay. Conditions: chlorocebus sabaeus. It is filed as cell-based.
For series [6], the system named is Porcine epidemic diarrhea virus. Kind of series: Antiviral activity against PEDV infected in African green monkey Vero cells assessed as suppression of GP2 spike protein mRNA level after 24 hrs by RT-PCR analysis. It is filed as functional, cell-based.
Series [7] has the same test system. Kind of series: Antiviral activity against PEDV infected in African green monkey Vero cells assessed as reduction in virus-induced cytopathic effect after 72 hrs by MTT assay. It is filed as functional, cell-based.
Series [8] shares this test system. The series is described as follows: Antiviral activity against PEDV infected in African green monkey Vero cells assessed as suppression of GP2 spike protein expression after 24 hrs by Western blot analysis. It is filed as functional, cell-based.
Series [9] has the same test system. The series is described as follows: Antiviral activity against PEDV infected in African green monkey Vero cells assessed as suppression of GP6 neucleocapsid protein mRNA level after 24 hrs by RT-PCR analysis. It is filed as functional, cell-based.
For series [10] the test system is unchanged. The series is described as follows: Antiviral activity against PEDV infected in African green monkey Vero cells assessed as suppression of GP6 neucleocapsid protein expression after 24 hrs by FITC-based immunofluorescence assay. It is filed as functional, cell-based.
The test system is the same in series [11]. The series is described as follows: Antiviral activity against PEDV infected in African green monkey Vero cells assessed as suppression of GP6 neucleocapsid protein expression at 10 uM after 24 hrs by FITC-based immunofluorescence assay. It is filed as functional, cell-based.

What is called CC50 is the concentration at which the toxic effect on the cells reaches its halfway point. The pEC50 is −log10 of the EC50, conventionally taken in molar units.

pEC50: −log10 of the molar value. Calls of active or inactive are those of the source. No cut-off for these calls is given here.

On to `COC(=O)[C@]1(C)[C@@H](O)CC[C@]2(C)c3cc4c(cc3[C@@H](O)C[C@@H]12)[nH]c1ccccc14`, for which the Activity entry in series [1], in series [3], in [4], in series [6], in series [8] and in series [9] was “Dose-dependent effect” throughout. In addition, in [10], the Activity result is “Dose-dependent effect”. Besides, the “Ratio CC50/EC50” value in series [2] was 60.31. The compound further returned a cytotoxic concentration (CC50) at 48 h in series [5] of 56 µM. Besides, the pEC50 in [7] is 6.03.

On to `O=c1cnn([C@@H]2O[C@H](CO)[C@@H](O)[C@H]2O)c(=O)[nH]1` [6-AZAURIDINE], for which the “Ratio CC50/EC50” value in series [2] stood at 12.7. Moreover, the outcome in [4] and in [11] was Active. The compound further yielded a CC50 at 48 h in [5] of 57.3 µM. Also, in [7], the pEC50 is 5.35.

In the case of `C[C@@]1(C(=O)O)[C@@H](O)CC[C@]2(C)c3cc4c([nH]c5ccccc54)c(Cl)c3CC[C@@H]12`, in series [2], the “Ratio CC50/EC50” value is given as 12.89. Moreover, the midpoint of cytotoxicity in series [5], the CC50 at 48 h, lay at 162 µM. In addition, the negative logarithm of the EC50 (pEC50) in [7] was 4.89.

Take `COC(=O)[C@]1(C)[C@@H](O)CC[C@]2(C)c3cc4c(cc3C(=O)C[C@@H]12)[nH]c1ccccc14`: the “Ratio CC50/EC50” value in [2] came out at 34.63. Moreover, the outcome in series [4] and in series [6] was Active. In addition, it took 98.7 µM to reach half-maximal cytotoxicity in [5] (CC50 at 48 h). The pEC50 in [7] is 5.54.

Turning to `COC(=O)[C@]1(C)[C@@H](O)CC[C@]2(C)c3cc4c(cc3CC[C@@H]12)[nH]c1ccccc14`, in [2], the “Ratio CC50/EC50” value turned out to be 18.09. In series [5], this compound registered a CC50 at 48 h of 103 µM. Besides, in series [7], the negative-log EC50 (pEC50) is 5.24.

As to `C[C@@]1(C(=O)O)[C@@H](O)CC[C@]2(C)c3cc4c(cc3CC[C@@H]12)[nH]c1ccccc14` [XIAMYCIN], in [2], the “Ratio CC50/EC50” value amounted to 7. This compound displayed a cytotoxic concentration (CC50) at 48 h in series [5] of 138 µM. The pEC50 in [7] is 4.70.

For `C[C@@]1(C(=O)O)[C@@H](O)CC[C@]2(C)c3cc4c(cc3[C@@H](O)C[C@@H]12)[nH]c1ccccc14`, the “Ratio CC50/EC50” value in series [2] worked out at 6.75. The compound further displayed a cytotoxic concentration (CC50) at 48 h in series [5] of 76.9 µM. Also, the pEC50 in [7] is 4.94.
